Like-named read-outs stand apart in the source and are kept apart here. A value given as a limit tells only on which side of the number the result lay.

For data set [1] the following is noted: from C=CCNC(=O)O[C@@H]1CC[C@H](c2cc(Nc3ccc(S(=O)(=O)NCC=C)cc3F)nn2C(C)(C)C)C1; rcm bond; 20-membered ring; Grubbs Cat. M204; DCE; 1.92 mM; 25.0 °C.
The conditions of data set [2]: from C=CCNC(=O)O[C@@H]1CC[C@H](c2cc(Nc3ccc(S(=O)(=O)NCC=C)cc3F)nn2C(C)(C)C)C1; rcm bond; Grubbs Cat. M204 (Grubbs II); DCE; 1.92 mM; 25.0 °C; 40.0 h.
In data set [3] the target is T1, CDK2/CyclinA2 (Homo sapiens, UniProt P24941).
T1 construct: Wild-type, full length CDK2 in complex with wildtype, full length CyclinA2: Carna Cat #04-103; purchased Carna 04-103
The data set is described as follows: CDK2/CyclinA2 ChEF Assay (AQT, Table C). The format is biochemical. Conditions: 10xKm; for Ki: AQT ChEF, read-out: CDK2/CCNA2 AQT10xKm Ki: Average Ki; for CDK2/CCNA2 AQT10xKm Ki: CDK2/A2 Selectivity over CDK1/B1 / CDK2/CCNA2 AQT10xKm Ki: CDK2/A2 Selectivity over CDK9: AQT. As for the experimental part:
(§1) 16 nL of 1000× compound in 100% DMSO is added to a 384-well low volume, black assay plate. 12 μL of 1.3×CDK2/CyclinA2 (Wild-type, full length CDK2 in complex with wildtype, full length CyclinA2: Carna Cat #04-103 diluted in assay buffer (54 mM Hepes, 0.012% Brij-35, 10 mM MgCl2, 0.55 mM EGTA, 1% Glycerol, 0.02% BSA, and 1.2 mM DTT) is added to the plates on top of the compound and pre-incubated for 30 minutes at room temperature. Following the incubation, 4 uL of 4×Sox-chromophore (CSox) labeled peptide substrate (AQT0297, AssayQuant) & ATP diluted in assay buffer is added to the plate to initiate the reaction. The assay is incubated at room temperature for 90 min after initiation. The CSox peptide substrate is phosphorylated by CDK2/A2 upon ATP hydrolysis.
(§2) The fluorescent intensity measurement of the assay plate is read on a microplate reader once the assay is initiated and again at the completion of the assay. Phosphorylation of the CSox-based peptide substrate sensor results in an immediate increase in fluorescence. These raw fluorescence intensity values are normalized to calculate percent inhibition, which are fit to a four-parameter logistic curve and IC50 values are calculated. IC50 values are converted to Ki using substrate, KM^app values, and the Cheng-Prusoff equation.

In data set [4] the target is T2, CDK1/CyclinB1 (Homo sapiens, UniProt P06493).
T2 construct: Wild-type, full length CDK1 in complex with wildtype, full length CyclinB1: Carna Cat #04-102; purchased Carna 04-102
T2 sequence (P06493 whole entry): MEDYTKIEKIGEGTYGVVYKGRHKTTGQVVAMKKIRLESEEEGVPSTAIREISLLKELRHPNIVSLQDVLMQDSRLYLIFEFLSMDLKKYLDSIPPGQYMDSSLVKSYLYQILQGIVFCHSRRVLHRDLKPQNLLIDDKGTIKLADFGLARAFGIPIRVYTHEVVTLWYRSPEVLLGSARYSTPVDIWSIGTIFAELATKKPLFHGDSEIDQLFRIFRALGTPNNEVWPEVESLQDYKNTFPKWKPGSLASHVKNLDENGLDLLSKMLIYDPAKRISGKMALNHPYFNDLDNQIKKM
T2 sequence (P14635 whole entry partner): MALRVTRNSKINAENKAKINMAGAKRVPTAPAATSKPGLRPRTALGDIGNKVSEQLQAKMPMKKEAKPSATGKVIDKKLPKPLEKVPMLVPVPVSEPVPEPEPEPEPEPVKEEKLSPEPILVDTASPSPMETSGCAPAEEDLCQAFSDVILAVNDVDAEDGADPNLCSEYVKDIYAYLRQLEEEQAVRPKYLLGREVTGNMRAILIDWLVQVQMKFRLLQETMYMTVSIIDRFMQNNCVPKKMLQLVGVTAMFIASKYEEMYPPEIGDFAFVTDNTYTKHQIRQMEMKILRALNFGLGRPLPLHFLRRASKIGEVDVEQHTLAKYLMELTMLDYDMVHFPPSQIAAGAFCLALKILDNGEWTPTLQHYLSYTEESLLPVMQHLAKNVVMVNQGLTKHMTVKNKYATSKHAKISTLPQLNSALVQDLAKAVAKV
The data set is described as follows: CDK1/CyclinB1 ChEF Assay (AQT, Table C). The format is biochemical. The following applies: 10xKm, read-out: CDK1/CCNB1 AQT AQT10xKm Ki: Average Ki. The procedure: as §1, with “1.3×CDK1/CyclinB1” for “1.3×CDK2/CyclinA2”, “CDK1” for “CDK2”, “CyclinB1:” for “CyclinA2:”, “#04-102)” for “#04-103”, “120” for “90”, “CDK1/B1” for “CDK2/A2”
as §2

For data set [5], the target named is T3, CDK9/CyclinT1 (Homo sapiens, UniProt P50750). The data set is described as follows: CDK9/CyclinT1 Mobility Shift Assay (Caliper, Table B). The data set is classed as biochemical. Also noted: Wild-type, full length CDK9 in complex with wildtype, CyclinT1 (1-259): Biortus Cat #BP480/792/691; purchased Biortus BP480/792/691. Conditions: read-out: CDK9/Cyclin T1 Caliper Ki: Average Ki. As for the experimental part:
10 nL of 2000× compound in 100% DMSO is added to a 384-well polypropylene assay plate. 15 μL of 1.3×CDK9/T1 and 1.3× fluorescent substrate (Wild-type, full length CDK9 in complex with wildtype, CyclinT1 (1-259): Biortus Cat #BP480/792/691 and FL-Peptide 34: PerkinElmer Cat #760643) diluted in kinase buffer (50 mM Hepes, 0.01% Brij-35, 10 mM MgCl2, 1 mM EGTA, 0.05% BSA, and 2 mM DTT) is added to the plates on top of the compound, mixed, and pre-incubated for 30 minutes at room temperature. The fluorescently labeled peptide substrate is phosphorylated by CDK9/T1 upon ATP hydrolysis. Following the incubation, 5 μL of 4×ATP diluted in kinase buffer is added to the plate to initiate the reaction. Following the 30-minute incubation, the reaction is stopped by adding 75 μL of stopping buffer containing 0.5 M EDTA.
The assay plate is then read on a Lab Chip EZ Reader which separates the fluorescently labeled substrate and product peptides through a mobility difference. The phosphorylation of the substrate imparts a negative charge, which allows differences in separation as both are pulled through the microfluidic chip. The ratio of substrate and product values are used to generate percent conversion. These raw percent conversion values are normalized to calculate percent inhibition, which are fit to a four-parameter logistic curve and IC50 values are calculated. IC50 values are converted to Ki using substrate, Kmapp values, and the Cheng-Prusoff equation.

The target in data set [6] is T3, CDK9/CyclinT1. The data set is described as follows: CDK9/CyclinT1 ChEF Assay (AQT, Table C). The format is biochemical. Also noted: Wild-type, full length CDK9 in complex with wildtype, CyclinT1 (1-259): Biortus Cat #BP480/792/691; purchased Biortus BP480/792/691. The following applies: 10XKm. As for the experimental part:
16 nL of 1000× compound in 100% DMSO is added to a 384-well low volume, black assay plate. 12 μL of 1.3×CDK9/CyclinT1 (Wild-type, full length CDK9 in complex with wildtype, CyclinT1 (1-259): Biortus Cat #BP480/792/691) diluted in assay buffer (54 mM Hepes, 0.012% Brij-35, 10 mM MgCl2, 0.55 mM EGTA, 1% Glycerol, 0.02% BSA, and 1.2 mM DTT) is added to the plates on top of the compound and pre-incubated for 30 minutes at room temperature. Following the incubation, 4 μL of 4×Sox-chromophore (CSox) labeled peptide substrate (AQT0449, AssayQuant) & ATP diluted in assay buffer is added to the plate to initiate the reaction. The assay is incubated at room temperature for 180 min after initiation. The CSox peptide substrate is phosphorylated by CDK9/T1 upon ATP hydrolysis.
as §2

T3 sequence (P50750 whole entry): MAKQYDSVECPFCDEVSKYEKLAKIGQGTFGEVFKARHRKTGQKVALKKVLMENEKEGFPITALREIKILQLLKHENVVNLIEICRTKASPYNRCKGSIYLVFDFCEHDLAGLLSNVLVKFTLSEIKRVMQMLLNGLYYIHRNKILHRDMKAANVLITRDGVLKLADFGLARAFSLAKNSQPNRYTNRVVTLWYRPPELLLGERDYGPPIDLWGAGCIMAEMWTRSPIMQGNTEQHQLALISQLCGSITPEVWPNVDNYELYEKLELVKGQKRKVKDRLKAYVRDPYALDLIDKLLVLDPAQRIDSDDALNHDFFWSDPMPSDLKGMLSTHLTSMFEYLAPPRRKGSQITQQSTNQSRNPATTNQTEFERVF
T3 sequence (O60563 1-259 partner limits assumed): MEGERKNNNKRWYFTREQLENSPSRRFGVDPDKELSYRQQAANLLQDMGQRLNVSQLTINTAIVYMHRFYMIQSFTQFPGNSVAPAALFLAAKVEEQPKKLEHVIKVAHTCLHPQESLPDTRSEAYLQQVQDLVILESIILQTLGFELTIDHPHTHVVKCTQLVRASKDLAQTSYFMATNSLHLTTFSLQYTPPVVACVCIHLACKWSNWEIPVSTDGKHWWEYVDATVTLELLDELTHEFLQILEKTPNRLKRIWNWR

Under “the molecule shown is the open-chain precursor, other bond, 20-membered ring, HCOOH, then DIEA, DMF, 76.7 mM, 50.0 °C, 2 steps”, `CC(C)(C)OC(=O)NCCCCCNc1cc(Nc2ncc(C3CCC(OC(=O)Oc4ccc([N+](=O)[O-])cc4)C3)cn2)ccc1S(=O)(=O)NC(=O)OC(C)(C)C` (stereo not shown) gave a ring closure, isolated yield of 39.5%.
`CC(C)(C)OC(=O)NCCOCCNS(=O)(=O)c1ccc(Nc2cc([C@H]3CC[C@@H](OC(=O)Oc4ccc([N+](=O)[O-])cc4)C3)n(C(C)(C)C)n2)c(F)c1`: where the note is “the molecule shown is the open-chain precursor, other bond, 21-membered ring, TFA, then DIPEA, DCE, 5.25 mM, 25.0 °C, 2 steps”, the ring closure, isolated yield stood at 62.3%.
As for `CC(C)(C)n1nc2cc1[C@H]1CC[C@H](C1)OC(=O)NCC=CCNS(=O)(=O)c1ccc(c(F)c1)N2`, in data set [1], the ring closure, yield after HPLC turned out to be 29%. The same molecule gave a ring closure, yield of all isomers in data set [2] of 29%.
As to `Cn1ncc2c1C(=O)NCCCCCOc1nc(ncc1Cl)NC1CCN(CC1)S2(=O)=O`, for the setting “from Cn1ncc(S(=O)(=O)N2CCC(N)CC2)c1C(=O)NCCCCCOc1nc(Cl)ncc1Br, snar bond, 19-membered ring, K2CO3, DMSO, 6.02 mM, 110.0 °C”, the ring closure, isolated yield turned out to be 33%.
As for `NCCCCCOc1cc(Nc2ncc(C3CCC(OC(=O)Oc4ccc([N+](=O)[O-])cc4)C3)cn2)ccc1S(N)(=O)=O` (stereo not shown), the ring closure, isolated yield (the molecule shown is the open-chain precursor, other bond, 20-membered ring, DIEA, DMF, 41.5 mM, 50.0 °C) was 11.1%.
Consider `NS(=O)(=O)c1ccc2cc1OCCCCCNC(=O)O[C@H]1CC[C@H](C1)c1cnc(nc1)N2` (stereo in doubt) [Compound 103, 12-oxo-5,13-dioxa-3,11-diaza-2(5,2)-pyrimidina-4(1,3)-benzena-1(1,3)-cyclopentanacyclotridecaphane-44-sulfonamide], for which the Ki in data set [3] is less than 1 nM; in data set [4], 1 to 25 nM; in data set [5] it was not below 100 nM; in data set [6] it was 1 to 25 nM. In addition, the “CDK2/CCNA2 AQT10xKm Ki: CDK2/A2 Selectivity over CDK1/B1” value in data set [3] is listed as “A (A>10)”. For the same molecule, the “CDK2/CCNA2 AQT10xKm Ki: CDK2/A2 Selectivity over CDK9” value in data set [3] is on record as “A (A>10)”.
With `NS(=O)(=O)c1ccc2cc1OCCCCCNC(=O)O[C@H]1CC[C@H](C1)c1cnc(nc1)N2` (stereo in doubt) [Compound 104, rel-(2R,5S)-7-oxo-6,14-dioxa-8,20,22,25-tetraazatetracyclo[19.2.2.1^{2,5}.1^{15,19}]heptacosa-1(23),15,17,19(26),21,24-hexaene-16-sulfonamide], the Ki in data set [3] is less than 1 nM; in data set [4] it was 1 to 25 nM; in data set [5], not below 100 nM; in data set [6], not below 100 nM. In data set [3], the “CDK2/CCNA2 AQT10xKm Ki: CDK2/A2 Selectivity over CDK1/B1” value is on record as “A (A>10)”. Besides, the “CDK2/CCNA2 AQT10xKm Ki: CDK2/A2 Selectivity over CDK9” value in data set [3] is “A (A>10)”.
For “(1^1S,1^3R,Z)-2^1H-15-oxa-5-thia-3,6,13-triaza-2(5,3)-pyrazola-4(1,4)-cyclohexana-1(1,3)-cyclopentanacyclopentadecaphan-14-one 5,5-dioxide”, for the setting “other bond, 22-membered ring, TFA, then DIPEA, DCM/DCE, 4.26 mM, 25.0 °C, 2 steps”, the ring closure, isolated yield came out at 50%.

(Values after US20260200943A1, “COMPOUNDS FOR TREATING CANCER” (Genesis Therapeutics, Inc., priority 2022, published 2026).)
